Biological target: AlaI (Streptomyces alanosinicus, UniProt A0A6H1Z626)
Assay: co-purification with the enzyme
Format: binding
Conditions: 10 uM FAD also added in assay; pH 8.0

Cc1cc2nc3c(=O)[nH]c(=O)nc-3n(C[C@H](O)[C@H](O)[C@H](O)COP(=O)(O)OP(=O)(O)OC[C@H]3O[C@@H](n4cnc5c(N)ncnc54)[C@H](O)[C@@H]3O)c2cc1C [FAD]
co-purification with the enzyme: AlaI purified with FAD, hence we still observed activity without exogenous FAD added

From paper PMC7176540 (Chembiochem : a European journal of chemical biology, 2019)
